Tests used:
Assay type in all cases: biochemical
[1] = biological target: T1, trypsin (Bos taurus, UniProt P00760); assay: Trypsin inhibition assay; conditions: class symbol instead of IC50
T1 sequence (P00760 24-246): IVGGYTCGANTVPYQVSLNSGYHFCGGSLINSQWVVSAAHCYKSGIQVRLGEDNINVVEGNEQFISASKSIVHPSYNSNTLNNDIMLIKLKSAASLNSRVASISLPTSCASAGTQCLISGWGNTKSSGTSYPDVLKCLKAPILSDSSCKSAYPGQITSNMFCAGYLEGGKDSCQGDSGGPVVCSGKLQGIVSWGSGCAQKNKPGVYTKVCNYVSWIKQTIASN
Experimental: (§1) The enzyme inhibitory activity of cyanopeptolins was assayed against trypsin [108], chymotrypsin, thrombin [109], and elastase as described before. In brief, the samples were prepared and serially diluted (1 mg, 1:1—1:10,000 times) in 1% DMSO; the standard inhibitors: aprotinin (trypsin and chymotrypsin) AEBSF 4-(2-aminoethyl)benzenesulfonyl fluoride hydrochloride (thrombin), elastatinal (elastase) (all from Sigma Aldrich; St. Louis, MO, USA) were also prepared in 1% DMSO. DMSO (1%) without the addition of the enzyme served as a negative control. All tests were carried out in triplicates. After the incubation of the assay mixtures, the absorbances were measured at 405 nm (Varioskan Flash Thermo Fisher Scientific OY, Vantaa, Finland). The reduction in enzyme activity greater than 50% was considered as significant.

[2] = biological target: elastase (Sus scrofa, UniProt P00772); assay: Elastase inhibition assay; conditions: class symbol instead of IC50
elastase, sequence (P00772 27-266): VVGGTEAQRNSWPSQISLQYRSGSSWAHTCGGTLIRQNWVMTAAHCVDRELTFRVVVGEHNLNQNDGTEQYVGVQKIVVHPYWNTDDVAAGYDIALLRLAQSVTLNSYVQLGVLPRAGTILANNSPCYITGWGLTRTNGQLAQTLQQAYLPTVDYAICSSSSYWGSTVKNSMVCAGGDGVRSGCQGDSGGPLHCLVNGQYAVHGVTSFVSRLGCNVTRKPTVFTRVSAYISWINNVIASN
Experimental: as §1

[3] = system: chymotrypsin; assay: Chymotrypsin inhibition assay; conditions: read-out: CHY (chymotrypsin) IC50
Experimental: as §1, with “In” for “The enzyme inhibitory activity of cyanopeptolins was assayed against trypsin [108], chymotrypsin, thrombin [109], and elastase as described before. In”

[4] = biological target: thrombin (Homo sapiens, UniProt P00734); assay: Thrombin inhibition assay; conditions: highest concentration in the assay 45 µg × mL−1
Experimental: as §1

CCCCCC(=O)N[C@@H](CC(=O)O)C(=O)N[C@@H]1C(=O)N[C@@H](Cc2ccccc2)C(=O)N[C@H]2CC[C@@H](O)N(C2=O)[C@@H](Cc2ccccc2)C(=O)N(C)[C@@H](Cc2ccccc2)C(=O)N[C@@H](C(C)C)C(=O)O[C@@H]1C [CP 981, [Thr + Phe + Ahp + Phe + MePhe + Val]Asp + HA]
TRY (trypsin) inhibition class [1]: − (not active (inhibition below 50%))
E (elastase) inhibition class [2]: − (not active (inhibition below 50%))
IC50 [3]: 3.92 µM
TRB (thrombin) inhibition class [4]: − (not active (inhibition below 50%))
